A short description of series [1]: Plasma protein binding in human. It counts as ADME, cell-free. The note with it: read-out: PPB (converted).
The nature of series [2]: Intrinsic clearance in mouse microsomes. It counts as ADME, Microsome.
For series [3], the target named is Serine/threonine-protein kinase PLK2 (Homo sapiens, UniProt Q9NYY3). The series is described as follows: Inhibition of PLK2 (unknown origin) at 1 uM relative to control.
The nature of series [4]: Thermodynamic solubility of compound. It counts as physicochemical. Particulars: read-out: Therm_solubility.
Series [5] is described as follows: Half life in Beagle dog at 3 mg/kg, iv measured upto 24 hrs by LC-MS/MS analysis. Type of series: ADME, organism-based, Canis lupus familiaris. Particulars: in vivo.
For another series, the target named is Wee1-like protein kinase (Homo sapiens, UniProt P30291).

The values that follow come from ChEMBL document CHEMBL4842364 (J Med Chem, 2021).

pIC50: −log10 of the molar value. In brackets after ≈: the same amount, converted by molar mass.

Serine/threonine-protein kinase PLK2, sequence (Q9NYY3 whole entry, looked up): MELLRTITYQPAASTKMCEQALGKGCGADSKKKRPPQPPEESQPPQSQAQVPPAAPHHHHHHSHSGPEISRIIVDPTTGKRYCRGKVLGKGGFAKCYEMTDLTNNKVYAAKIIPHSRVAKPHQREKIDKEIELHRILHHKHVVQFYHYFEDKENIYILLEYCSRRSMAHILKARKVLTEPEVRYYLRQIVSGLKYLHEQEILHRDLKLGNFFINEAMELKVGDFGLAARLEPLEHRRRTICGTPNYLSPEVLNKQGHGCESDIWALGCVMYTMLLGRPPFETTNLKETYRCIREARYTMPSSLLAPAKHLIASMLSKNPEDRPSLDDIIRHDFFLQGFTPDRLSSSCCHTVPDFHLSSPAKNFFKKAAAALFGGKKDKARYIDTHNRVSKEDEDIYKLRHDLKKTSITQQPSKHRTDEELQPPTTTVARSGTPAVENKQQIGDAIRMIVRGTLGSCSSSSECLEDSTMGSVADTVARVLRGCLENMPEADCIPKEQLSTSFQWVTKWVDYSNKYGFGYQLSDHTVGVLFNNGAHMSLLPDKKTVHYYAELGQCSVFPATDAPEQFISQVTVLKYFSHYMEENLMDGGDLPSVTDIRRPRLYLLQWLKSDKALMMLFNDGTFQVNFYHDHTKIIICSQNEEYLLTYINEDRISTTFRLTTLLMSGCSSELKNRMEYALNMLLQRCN
Wee1-like protein kinase, sequence (P30291 whole entry): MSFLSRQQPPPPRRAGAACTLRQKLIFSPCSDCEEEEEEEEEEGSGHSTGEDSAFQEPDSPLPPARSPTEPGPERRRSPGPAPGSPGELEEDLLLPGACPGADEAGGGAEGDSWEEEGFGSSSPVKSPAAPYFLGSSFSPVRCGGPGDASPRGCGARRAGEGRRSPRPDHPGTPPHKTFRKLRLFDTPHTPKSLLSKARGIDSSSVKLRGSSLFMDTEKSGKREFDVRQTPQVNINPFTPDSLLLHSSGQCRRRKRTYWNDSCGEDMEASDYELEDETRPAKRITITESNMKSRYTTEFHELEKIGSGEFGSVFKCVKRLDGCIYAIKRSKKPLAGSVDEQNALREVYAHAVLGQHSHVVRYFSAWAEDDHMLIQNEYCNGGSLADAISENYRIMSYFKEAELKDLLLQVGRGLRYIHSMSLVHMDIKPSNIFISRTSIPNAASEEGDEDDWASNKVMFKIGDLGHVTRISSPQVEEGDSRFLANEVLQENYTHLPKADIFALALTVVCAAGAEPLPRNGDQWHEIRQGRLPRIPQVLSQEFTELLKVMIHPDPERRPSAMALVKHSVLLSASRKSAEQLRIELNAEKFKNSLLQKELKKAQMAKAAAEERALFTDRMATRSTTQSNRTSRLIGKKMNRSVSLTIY
Description for Wee1-like protein kinase: Displacement of Alexa Fluor labelled kinase tracer178 from WEE1 (unknown origin) incubated for 60 mins by FRET assay

Regarding `C=CCn1c(=O)c2cnc(Nc3ccc(N4CCN(C)CC4)cc3)nc2n1-c1ccc2c(n1)C(O)(CC)CC2` (racemic), the fraction unbound in series [1] is 0.34. The CLint scaled in series [2] was 74 mL/min/kg. The compound also yielded an inhibition in series [3] greater than 90%. Further, the solubility thermodynamic in series [4] was determined as 2130 µM (≈ 1120 µg/mL). The half-life in series [5] was 1.4 h. At Wee1-like protein kinase, this compound showed a negative-log IC50 (pIC50) of 8.41.
